Source: PubChem BioAssay AID272 (DTP/NCI, 2004)
Several values for one entry are separate records, joined by “and”; a condition that tells them apart may be missing. Equal entries are not always repeated. Results filed as inconclusive are left out.

System: Lewis lung carcinoma i.m., BDF1 mice, T/C %
Assay: NCI In Vivo Anticancer Drug Screen. Data for tumor model Lewis Lung Carcinoma (intramuscular) in B6D2F1 (BDF1) mice
Outline: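 Antitumour activity is assessed in transplanted-tumour mice. Endpoint is survival or tumour size, normalised to vehicle-dosed controls (T/C).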

[1] = endpoint: mean tumor weight (est.), dose: 10.0 mg/kg/injection, schedule: Q01DX011 (ip), vehicle: saline with Tween-80, higher = larger tumour
[2] = endpoint: mean tumor weight (est.), dose: 20.0 mg/kg/injection, schedule: Q01DX011 (ip), vehicle: saline with Tween-80, higher = larger tumour

For `O=c1[nH]cc(F)c(=O)[nH]1`, which T/C [1] is on record?
The T/C was 37 % of control.

What about the T/C [2] of the same compound?
The T/C was 9 % of control.

And the T/C (endpoint: mean tumor weight, dose: 5.0 mg/kg/injection, schedule: Q01DX011 (ip), vehicle: other, higher = larger tumour)?
Its T/C is 93 % of control.

And the T/C (endpoint: mean tumor weight, dose: 5.0 mg/kg/injection, schedule: Q01DX011 (ip), vehicle: saline, higher = larger tumour)?
The T/C was 71 % of control.

What about the T/C (endpoint: mean tumor weight, dose: 10.0 mg/kg/injection, schedule: Q01DX011 (ip), vehicle: other, higher = larger tumour) of the same compound?
The T/C was 46 % of control.

And the T/C (endpoint: mean tumor weight, dose: 10.0 mg/kg/injection, schedule: Q01DX011 (ip), vehicle: saline, higher = larger tumour)?
The T/C was 51 % of control and 57 % of control.

What about the T/C (endpoint: mean tumor weight, dose: 20.0 mg/kg/injection, schedule: Q01DX011 (ip), vehicle: other, higher = larger tumour) of the same compound?
Its T/C is 18 % of control.

What about the T/C (endpoint: mean tumor weight, dose: 20.0 mg/kg/injection, schedule: Q01DX011 (ip), vehicle: saline, higher = larger tumour) of the same compound?
The T/C was 5 % of control.

What about the T/C (endpoint: median survival time, dose: 5.0 mg/kg/injection, schedule: Q01DX011 (ip), vehicle: other, higher = longer survival) of the same compound?
Its T/C is 100 % of control.

And the T/C (endpoint: median survival time, dose: 6.3 mg/kg/injection, schedule: Q04DX004 (ip), vehicle: saline, higher = longer survival)?
Its T/C is 112 % of control.

What about the T/C (endpoint: median survival time, dose: 10.0 mg/kg/injection, schedule: Q01DX009 (ip), vehicle: saline, higher = longer survival) of the same compound?
The T/C was 112 % of control.

What about the T/C (endpoint: median survival time, dose: 10.0 mg/kg/injection, schedule: Q01DX011 (ip), vehicle: other, higher = longer survival) of the same compound?
Its T/C is 96 % of control.

And the T/C (endpoint: median survival time, dose: 12.5 mg/kg/injection, schedule: Q04DX004 (ip), vehicle: saline, higher = longer survival)?
The T/C was 116 % of control.

And the T/C (endpoint: median survival time, dose: 20.0 mg/kg/injection, schedule: Q01DX009 (ip), vehicle: saline, higher = longer survival)?
The T/C was 119 % of control.

What about the T/C (endpoint: median survival time, dose: 20.0 mg/kg/injection, schedule: Q01DX011 (ip), vehicle: other, higher = longer survival) of the same compound?
The T/C was 122 % of control.

And the T/C (endpoint: median survival time, dose: 25.0 mg/kg/injection, schedule: Q04DX004 (ip), vehicle: saline, higher = longer survival)?
Its T/C is 108 % of control.

What about the T/C (endpoint: median survival time, dose: 50.0 mg/kg/injection, schedule: Q04DX004 (ip), vehicle: saline, higher = longer survival) of the same compound?
The T/C was 89 % of control.

With `CSc1ncnc2nc[nH]c12` as the compound, how does the T/C (endpoint: mean tumor weight (est.), dose: 1.56 mg/kg/injection, schedule: Q01DX011 (ip), vehicle: saline, higher = larger tumour) read?
The T/C was 79 % of control.

What about the T/C (endpoint: mean tumor weight (est.), dose: 3.12 mg/kg/injection, schedule: Q01DX011 (ip), vehicle: saline, higher = larger tumour) of the same compound?
Its T/C is 79 % of control.

What about the T/C (endpoint: mean tumor weight (est.), dose: 6.25 mg/kg/injection, schedule: Q01DX011 (ip), vehicle: saline, higher = larger tumour) of the same compound?
Its T/C is 85 % of control.

And the T/C (endpoint: mean tumor weight (est.), dose: 12.5 mg/kg/injection, schedule: Q01DX011 (ip), vehicle: saline, higher = larger tumour)?
The T/C was 78 % of control.

What about the T/C (endpoint: mean tumor weight (est.), dose: 25.0 mg/kg/injection, schedule: Q01DX011 (ip), vehicle: saline, higher = larger tumour) of the same compound?
Its T/C is 80 % of control.

What about the T/C (endpoint: mean tumor weight (est.), dose: 50.0 mg/kg/injection, schedule: Q01DX011 (ip), vehicle: saline, higher = larger tumour) of the same compound?
Its T/C is 89 % of control.

What about the T/C (endpoint: mean tumor weight (est.), dose: 100.0 mg/kg/injection, schedule: Q01DX011 (ip), vehicle: saline, higher = larger tumour) of the same compound?
Its T/C is 62 % of control.

And the T/C (endpoint: mean tumor weight, dose: 3.12 mg/kg/injection, schedule: Q01DX011 (ip), vehicle: other, higher = larger tumour)?
Its T/C is 96 % of control.

What about the T/C (endpoint: mean tumor weight, dose: 6.25 mg/kg/injection, schedule: Q01DX011 (ip), vehicle: other, higher = larger tumour) of the same compound?
Its T/C is 79 % of control.

What about the T/C (endpoint: mean tumor weight, dose: 12.5 mg/kg/injection, schedule: Q01DX011 (ip), vehicle: other, higher = larger tumour) of the same compound?
The T/C was 73 % of control.

What about the T/C (endpoint: median survival time, dose: 1.56 mg/kg/injection, schedule: Q01DX011 (ip), vehicle: other, higher = longer survival) of the same compound?
Its T/C is 104 % of control.

What about the T/C (endpoint: median survival time, dose: 1.56 mg/kg/injection, schedule: Q01DX011 (ip), vehicle: saline, higher = longer survival) of the same compound?
Its T/C is 92 % of control.

What about the T/C (endpoint: median survival time, dose: 3.12 mg/kg/injection, schedule: Q01DX011 (ip), vehicle: saline, higher = longer survival) of the same compound?
The T/C was 92 % of control.

And the T/C (endpoint: median survival time, dose: 6.25 mg/kg/injection, schedule: Q01DX011 (ip), vehicle: saline, higher = longer survival)?
Its T/C is 90 % of control.

What about the T/C (endpoint: median survival time, dose: 12.5 mg/kg/injection, schedule: Q01DX011 (ip), vehicle: other, higher = longer survival) of the same compound?
Its T/C is 93 % of control and 100 % of control.

And the T/C (endpoint: median survival time, dose: 12.5 mg/kg/injection, schedule: Q01DX011 (ip), vehicle: saline, higher = longer survival)?
The T/C was 88 % of control.

What about the T/C (endpoint: median survival time, dose: 25.0 mg/kg/injection, schedule: Q01DX011 (ip), vehicle: saline, higher = longer survival) of the same compound?
Its T/C is 92 % of control.

And the T/C (endpoint: median survival time, dose: 50.0 mg/kg/injection, schedule: Q01DX011 (ip), vehicle: other, higher = longer survival)?
Its T/C is 109 % of control.

And the T/C (endpoint: median survival time, dose: 50.0 mg/kg/injection, schedule: Q01DX011 (ip), vehicle: saline, higher = longer survival)?
The T/C was 90 % of control.

And the T/C (endpoint: median survival time, dose: 100.0 mg/kg/injection, schedule: Q01DX011 (ip), vehicle: saline, higher = longer survival)?
Its T/C is 105 % of control.

Which results are given for `CC1([CH2][Hg][I])CS(=O)(=O)CC(C)([CH2][Hg][I])O1` (stereo not given)?
T/C (endpoint: mean tumor weight (est.), dose: 2.5 mg/kg/injection, schedule: Q01DX011 (ip), vehicle: saline with Tween-80, higher = larger tumour): 82 % of control; T/C (endpoint: mean tumor weight (est.), dose: 5.0 mg/kg/injection, schedule: Q01DX011 (ip), vehicle: saline with Tween-80, higher = larger tumour): 89 % of control; T/C [1]: 49 % of control; T/C [2]: 47 % of control; T/C (endpoint: median survival time, dose: 2.5 mg/kg/injection, schedule: Q01DX011 (ip), vehicle: saline with Tween-80, higher = longer survival): 94 % of control; T/C (endpoint: median survival time, dose: 5.0 mg/kg/injection, schedule: Q01DX011 (ip), vehicle: saline with Tween-80, higher = longer survival): 98 % of control; T/C (endpoint: median survival time, dose: 10.0 mg/kg/injection, schedule: Q01DX011 (ip), vehicle: saline with Tween-80, higher = longer survival): 112 % of control; T/C (endpoint: median survival time, dose: 20.0 mg/kg/injection, schedule: Q01DX011 (ip), vehicle: saline with Tween-80, higher = longer survival): 100 % of control
